In BindingDB's records for PubMed 32163814 (n/a, 2020) one finds IC50 data, which are given here for five compounds.

Each structure is given as a SMILES string.

One experiment addresses Histone deacetylase 1 (Homo sapiens, UniProt Q13547). The experiment is described as follows: Inhibition of human HDAC1 using fluorogenic as substrate measured after 30 mins by fluorescence based analysis.
Another experiment concerns the target Histone deacetylase 2 (Homo sapiens, UniProt Q92769). Nature of the experiment: Inhibition of human HDAC2 using fluorogenic as substrate measured after 30 mins by fluorescence based analysis.
For experiment [1], the target named is T1, Histone deacetylase 6 (Homo sapiens, UniProt Q9UBN7).
T1 sequence (Q9UBN7 whole entry): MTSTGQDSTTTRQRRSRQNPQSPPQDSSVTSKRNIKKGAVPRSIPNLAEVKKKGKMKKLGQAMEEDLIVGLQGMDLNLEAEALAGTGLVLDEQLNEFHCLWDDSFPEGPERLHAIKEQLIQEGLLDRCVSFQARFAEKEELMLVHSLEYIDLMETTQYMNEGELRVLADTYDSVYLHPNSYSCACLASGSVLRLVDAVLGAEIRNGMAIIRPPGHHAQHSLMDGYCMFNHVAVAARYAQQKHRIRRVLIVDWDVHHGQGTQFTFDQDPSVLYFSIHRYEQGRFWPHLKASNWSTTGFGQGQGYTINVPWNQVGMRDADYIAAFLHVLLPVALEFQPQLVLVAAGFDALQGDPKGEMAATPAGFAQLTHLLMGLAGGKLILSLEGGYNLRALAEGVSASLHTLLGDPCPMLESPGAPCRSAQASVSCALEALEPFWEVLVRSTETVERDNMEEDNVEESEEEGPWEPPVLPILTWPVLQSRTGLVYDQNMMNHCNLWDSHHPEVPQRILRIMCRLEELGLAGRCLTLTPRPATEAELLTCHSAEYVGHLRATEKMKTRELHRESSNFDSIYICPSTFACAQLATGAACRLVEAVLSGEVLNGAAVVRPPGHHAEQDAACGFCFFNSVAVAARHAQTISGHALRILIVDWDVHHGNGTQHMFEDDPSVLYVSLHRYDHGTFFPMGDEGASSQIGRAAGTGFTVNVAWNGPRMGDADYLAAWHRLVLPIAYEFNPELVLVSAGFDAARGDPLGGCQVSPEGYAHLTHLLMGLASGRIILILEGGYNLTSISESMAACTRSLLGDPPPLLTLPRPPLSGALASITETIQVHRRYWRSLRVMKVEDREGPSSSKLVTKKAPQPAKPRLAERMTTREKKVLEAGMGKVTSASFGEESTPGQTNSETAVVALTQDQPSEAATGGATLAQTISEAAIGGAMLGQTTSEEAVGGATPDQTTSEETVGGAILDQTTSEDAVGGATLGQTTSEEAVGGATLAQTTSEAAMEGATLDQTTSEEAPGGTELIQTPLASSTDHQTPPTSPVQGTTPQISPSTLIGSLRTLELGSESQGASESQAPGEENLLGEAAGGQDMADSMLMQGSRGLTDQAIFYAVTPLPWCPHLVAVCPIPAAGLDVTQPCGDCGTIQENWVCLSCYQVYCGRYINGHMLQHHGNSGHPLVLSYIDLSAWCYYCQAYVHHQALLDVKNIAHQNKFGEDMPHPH
Nature of the experiment: Inhibition of human HDAC6 using fluorogenic as substrate measured after 30 mins by fluorescence based analysis.

The target in the next experiment is Histone deacetylase 3 (Homo sapiens, UniProt O15379). Nature of the experiment: Inhibition of human HDAC3 using fluorogenic as substrate measured after 30 mins by fluorescence based analysis.
Histone deacetylase 3, sequence (O15379 whole entry): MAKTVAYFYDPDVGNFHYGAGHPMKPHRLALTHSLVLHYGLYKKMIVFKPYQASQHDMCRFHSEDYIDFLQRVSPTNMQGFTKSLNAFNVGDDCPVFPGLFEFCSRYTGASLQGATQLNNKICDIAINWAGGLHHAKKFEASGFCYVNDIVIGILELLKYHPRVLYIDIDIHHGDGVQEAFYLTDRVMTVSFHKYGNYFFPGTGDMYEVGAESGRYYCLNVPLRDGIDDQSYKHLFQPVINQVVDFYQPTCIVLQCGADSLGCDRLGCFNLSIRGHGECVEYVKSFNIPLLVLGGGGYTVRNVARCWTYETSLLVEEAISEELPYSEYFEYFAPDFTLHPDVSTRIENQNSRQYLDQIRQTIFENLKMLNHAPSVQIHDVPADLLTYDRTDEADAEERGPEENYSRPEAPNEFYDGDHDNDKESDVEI
The target of experiment [2] is T1, Histone deacetylase 6. Nature of the experiment: Inhibition of human recombinant HDAC6 using fluorogenic HDAC substrate measured after 20 mins by fluorescence assay.

Histone deacetylase 2, sequence (Q92769 whole entry): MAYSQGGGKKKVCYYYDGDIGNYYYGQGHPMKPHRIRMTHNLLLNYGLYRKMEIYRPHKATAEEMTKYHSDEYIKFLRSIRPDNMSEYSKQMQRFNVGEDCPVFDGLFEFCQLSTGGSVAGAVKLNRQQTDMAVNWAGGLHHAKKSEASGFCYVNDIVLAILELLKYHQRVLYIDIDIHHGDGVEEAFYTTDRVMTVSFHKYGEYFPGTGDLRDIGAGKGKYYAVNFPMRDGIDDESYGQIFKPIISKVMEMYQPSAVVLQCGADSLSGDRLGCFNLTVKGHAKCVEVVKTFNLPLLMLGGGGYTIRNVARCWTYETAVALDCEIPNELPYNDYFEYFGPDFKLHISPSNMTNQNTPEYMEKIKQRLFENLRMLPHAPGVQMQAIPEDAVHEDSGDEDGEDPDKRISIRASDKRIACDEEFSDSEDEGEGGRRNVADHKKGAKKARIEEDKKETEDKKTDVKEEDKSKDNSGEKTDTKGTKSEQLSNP
Histone deacetylase 1, sequence (Q13547 whole entry): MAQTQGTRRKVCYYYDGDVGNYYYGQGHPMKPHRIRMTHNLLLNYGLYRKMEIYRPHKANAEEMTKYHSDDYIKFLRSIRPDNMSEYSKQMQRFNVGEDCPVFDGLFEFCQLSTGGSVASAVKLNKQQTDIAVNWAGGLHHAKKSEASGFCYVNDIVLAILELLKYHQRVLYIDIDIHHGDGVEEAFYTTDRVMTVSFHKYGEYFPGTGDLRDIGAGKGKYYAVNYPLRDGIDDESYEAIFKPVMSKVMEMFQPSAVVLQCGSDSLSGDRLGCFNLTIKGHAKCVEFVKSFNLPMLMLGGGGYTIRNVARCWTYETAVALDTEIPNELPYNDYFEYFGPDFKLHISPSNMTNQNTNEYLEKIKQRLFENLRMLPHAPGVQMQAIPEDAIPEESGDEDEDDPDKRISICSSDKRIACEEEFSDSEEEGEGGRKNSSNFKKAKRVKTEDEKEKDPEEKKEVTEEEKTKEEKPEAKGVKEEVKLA

As to `O=C(NO)c1ccc(NC(=O)[C@@H](NS(=O)(=O)c2cccc3ccccc23)c2ccccc2)cc1`, the IC50 (commonly the point on the concentration scale where inhibition reaches its midpoint) against Histone deacetylase 1 worked out at 0.031 µM; against Histone deacetylase 2 it was 0.171 µM; at Histone deacetylase 6 [1], 0.295 µM; against Histone deacetylase 3, 0.023 µM.
Take `CN(C)c1cccc2c(S(=O)(=O)N[C@H](C(=O)Nc3ccc(C(=O)NO)cc3)c3ccccc3)cccc12`: the IC50 is 0.107 µM at Histone deacetylase 2 and 0.366 µM against Histone deacetylase 6 [1].
Taken in the same sequence, the figures for `O=C(NO)c1ccc(NC(=O)[C@@H](NC(=O)c2cccc(Br)c2)c2ccccc2)cc1` were 0.089 µM and 0.196 µM.
Turning to `COc1ccccc1NC(=O)N[C@H](C(=O)Nc1ccc(C(=O)NO)cc1)c1ccccc1`, the IC50 at Histone deacetylase 6 [2] was found to be 0.294 µM.
As to `O=C(NO)c1ccc(NC(=O)[C@@H](NC(=O)c2ccc3ccccc3c2)c2ccccc2)cc1`, the IC50 against Histone deacetylase 1 turned out to be 0.029 µM; on Histone deacetylase 2 it was 0.244 µM; on Histone deacetylase 6 [1], 0.376 µM.
